According to US8202887B2, “2-(substituted-amino)-benzothiazole sulfonamide HIV protease inhibitors” (Janssen R&D Ireland, priority 2006, dated 2012):

Tests used:
Type in all cases: cell-based
[1] = test system: clinically isolated HIV strain A; test: Cellular anti-viral assay in MT4-LTR-EGFP cells, mutant strain A; settings: for EC50: Human immunodeficiency virus 1, 72 h, read-out: pEC50 virus strain A (converted); for pEC50 virus strain A: MT4-LTR-EGFP cells, three days, GFP signal
Experimental: (§1) Because of the increasing emergence of drug resistant HIV strains, the present compounds were tested for their potency against clinically isolated HIV strains harboring several mutations. These mutations are associated with resistance to protease inhibitors and result in viruses that show various degrees of phenotypic cross-resistance to the currently commercially available drugs such as for instance saquinavir, ritonavir, nelfinavir, indinavir and amprenavir. The viral strains coded as A, B, C and D contain mutations as indicated below in Table 2.
(§2) The cellular assay was performed according to the following procedure. HIV- or mock-infected MT4-LTR-EGFP cells were incubated for three days in the presence of various concentrations of the compounds according to the invention. Upon infection, the viral tat protein activates the GFP reporter. At the end of the incubation period, the GFP signal was measured. In the virus control samples (in the absence of any inhibitor) the maximal fluorescent signal was obtained. The inhibitory activity of the compound was monitored on the virus-infected cells and was expressed as EC50. These values represent the amount of the compound required to protect 50% of the cells from virus infection. (Table 3).

[2] = test system: clinically isolated HIV strain B; test: Cellular anti-viral assay in MT4-LTR-EGFP cells, mutant strain B; settings: for EC50: Human immunodeficiency virus 1, 72 h, read-out: pEC50 virus strain B (converted); for pEC50 virus strain B: MT4-LTR-EGFP cells, three days, GFP signal
Experimental: as §1, §2

[3] = test system: wild type laboratory HIV strain (WT IIIB-2-001); test: Cellular anti-viral assay in MT4-LTR-EGFP cells, wild type strain; settings: MT4-LTR-EGFP cells, three days, GFP signal; for EC50: Human immunodeficiency virus 1, IIIB, 72 h, read-out: pEC50 WT-IIIB-2-001 (converted)
Experimental: The compounds were tested in a cellular assay using the MT4-LTR-EGFP cells for anti-viral activity.
The cellular assay was performed according to the following procedure. HIV- or mock-infected MT4-LTR-EGFP cells were incubated for three days in the presence of various concentrations of the compounds according to the invention. Upon infection, the viral tat protein activates the GFP reporter. At the end of the incubation period, the GFP signal was measured. […] The inhibitory activity of the compound was monitored on the virus-infected cells and was expressed as EC50. These values represent the amount of the compound required to protect 50% of the cells from virus infection.

[4] = test system: clinically isolated HIV strain C; test: Cellular anti-viral assay in MT4-LTR-EGFP cells, mutant strain C; settings: for EC50: Human immunodeficiency virus 1, 72 h, read-out: pEC50 virus strain C (converted); for pEC50 virus strain C: MT4-LTR-EGFP cells, three days, GFP signal
Experimental: as §1, §2

[5] = test system: clinically isolated HIV strain D; test: Cellular anti-viral assay in MT4-LTR-EGFP cells, mutant strain D; settings: for pEC50 virus strain D: MT4-LTR-EGFP cells, three days, GFP signal
Experimental: as §1, §2

Compound	EC50 [1] [nM]	EC50 [2] [nM]	EC50 [3] [nM]	EC50 [4] [nM]	EC50 ([5]; Human immunodeficiency virus 1, 72 h, read-out: pEC50 virus strain D (converted)) [nM]	pEC50 virus strain A [1]	pEC50 virus strain D [5]	pEC50 virus strain B [2]	pEC50 WT-IIIB-2-001 [3]	pEC50 virus strain C [4]
COCCN1CCC(Nc2nc3ccc(S(=O)(=O)N(CC(C)C)C[C@@H](O)[C@H](Cc4ccccc4)NC(=O)O[C@H]4CO[C@H]5OCC[C@H]54)cc3s2)C1 (stereo in doubt) [Compound 17, [1-Benzyl-2-hydroxy-3-(isobutyl-{2-[1-(2-methoxy-ethyl)-pyrrolidin-3-ylamino]-benzothiazole-6-sulfonyl}-amino)-propyl]-carbamic acid hexahydro-furo[2,3-b]furan-3-yl ester]	13.2	17	18.6	3390						
CC(C)CN(C[C@@H](O)[C@H](Cc1ccccc1)NC(=O)O[C@H]1CO[C@H]2OCC[C@H]21)S(=O)(=O)c1ccc2nc(NC3CCN(Cc4cccnc4)C3)sc2c1 (stereo in doubt) [Compound 21, (1-Benzyl-2-hydroxy-3-{isobutyl-[2-(1-pyridin-3-ylmethyl-pyrrolidin-3-ylamino)-benzothiazole-6-sulfonyl}-amino]-propyl)-carbamic acid hexahydro-furo[2,3-b]furan-3-yl ester]	4.9	14.5	11.2	1820	7.08					
CC(C)CN(C[C@@H](O)[C@H](Cc1ccccc1)NC(=O)O[C@H]1CO[C@H]2OCC[C@H]21)S(=O)(=O)c1ccc2nc(NC3CCN(C(C)C)CC3)sc2c1 [Compound 5]						7.89	7.86	7.57	7.72	5.38
CC(C)CN1CCC(Nc2nc3ccc(S(=O)(=O)N(CC(C)C)C[C@@H](O)[C@H](Cc4ccccc4)NC(=O)O[C@H]4CO[C@H]5OCC[C@H]54)cc3s2)CC1 [Compound 6]						7.84	7.86	7.58	8.31	5.46
COCCN1CCC(Nc2nc3ccc(S(=O)(=O)N(CC(C)C)C[C@@H](O)[C@H](Cc4ccccc4)NC(=O)O[C@H]4CO[C@H]5OCC[C@H]54)cc3s2)CC1 [Compound 8]						6.65		7.00	7.44	5.25
CC(C)CN(C[C@@H](O)[C@H](Cc1ccccc1)NC(=O)O[C@H]1CO[C@H]2OCC[C@H]21)S(=O)(=O)c1ccc2nc(NC3CCN(C(=O)CN(C)C)CC3)sc2c1 [Compound 9]						6.99	6.99	6.59	6.56	5.00
CC(C)CN(C[C@@H](O)[C@H](Cc1ccccc1)NC(=O)O[C@H]1CO[C@H]2OCC[C@H]21)S(=O)(=O)c1ccc2nc(NC3CCNC3)sc2c1 (stereo partly drawn) [Compound 16]						5.93		5.89	6.82	5.90
COCCN1CCC(Nc2nc3ccc(S(=O)(=O)N(CC(C)C)CC(O)C(Cc4ccccc4)NC(=O)OC4COC5OCCC45)cc3s2)C1 (stereo not drawn) [Compound 18]						7.61		7.24	7.76	5.32
CC(C)CN(CC(O)C(Cc1ccccc1)NC(=O)OC1COC2OCCC12)S(=O)(=O)c1ccc2nc(NC3CCN(Cc4ccncc4)C3)sc2c1 (stereo not drawn) [Compound 22]								7.77	7.71	6.19
